Tests used:
[1] = In vivo retention and biodistribution after MN administration in mice bearing B16F10 melanoma; parameters: species or system mouse; conditions: for Cy5.5 signal around the melanoma site (retention): MN administration, imaging day 1, day 3, day 5
Experimental: HA-NPs formulation with conjugated 1-MT and encapsulated aPD1 can improve their physicochemical properties. Therefore, the in vivo kinetics of free aPD1/1-MT and NPs following MN administration were evaluated in the mice model bearing B16F10 melanoma. The drug retention capability was tested at the tumor site after the MN administration. In vivo […] imaging was conducted at day 1, day 3 and day 5 post injection of the MN loaded with aPD1 and Cy5.5-1-MT-HA or free Cy5.5-1-MT. […] A similar pattern was observed compared to the biodistribution at the tumor site and other organs in the control group. […] The sustained high concentrations of the drugs within tumor regions as well as in peripheral circulation would enhance the immune system capability to treat not only primary tumor but also metastatic tumors in the body.
For the fluorescent NPs, Cyanine5.5 NHS ester (Lumiprobe, Cy5.5) was covalently coupled to the primary amines of the aPD1 and 1-MT. The Cy5.5 was dissolved in anhydrous DMSO immediately before use, at a concentration of 10 mg/ml. Cy5.5 and 1-MT reacted at optimal ratio of 5:1. For the conjugation with aPD1, 40 μg Cy5.5 per mg of antibody was mixed immediately. The tube was wrapped in foil and incubated at room temperature for 1 hour. The unreacted Cy5.5 was removed and the aPD1 was exchanged by gel filtration using Sephadex G-25M.

restriction enzyme HhaI = assay: Digestion of DNCs by restriction enzyme HhaI, gel electrophoresis; assay type: biochemical; conditions: treated with HhaI
Experimental: Release studies were performed at 37° C. with constant agitation in PBS+10% fetal ovine serum. PBS, MMP-9 (500 ng/mL, Sigma) or Lipase (10 000 U, Sigma) were added to samples to study the DNA and antibody release. The DNA disintegration was analyzed by agarose gel electrophoresis using 1% (w/v) agarose gel and the antibody release was determined by IgG total ELISA kit (eBioscience).
Two different control DNCs (cDNC) with a non-specific sequence were synthesized (Table 1) to verify the design.
As shown in agarose gels (FIG. 7), without HhaI treatment, these cDNCs cannot migrate in the gel as DNCs.

Row | Molecule | Cy5.5 signal around the melanoma site (retention) [1] | biodistribution in the tumor and the major organs ([1]; Cy5.5-labeled 1-MT after MN administration) | cleavage by HhaI (gel electrophoresis) (restriction enzyme HhaI)
1 | 1-methyl-DL-tryptophan [1-MT] | little signal could be detected | – | –
2 | Cn1cc(CC(N)C(=O)O)c2ccccc21 (racemic) [1-MT, 1-methyl-DL-tryptophan] | quickly cleaved from the patch and eliminated by the body within one day | highest accumulations in the tumor followed by the lung and liver | –
3 | cDNC (with cutting sites, without CpG): control DNA nano-cocoon with HhaI cutting sites, without CpG (GTATTATTTCGAAATAATTTGTATTATT; 5' phosphate, chemistry not fully specified; the letters are possibly those of the target site) | – | – | readily cut into smaller homogeneous fragments
4 | cDNCs (with CpG, without cutting sites): control DNA nano-cocoon with CpG, without HhaI cutting sites (nucleic acid, listed as DNA, chemistry not fully specified; the letters are possibly those of the target site) ATATGTCGTCGTTCGAACGACGTTATATAACGTCGTTCGAACGACGTTATATGTCGTCGTTCGAACGACGTT | – | – | resistant to cleavage by HhaI

Source: patent publication US11110168B2, “Nanoparticles, controlled-release dosage forms, and methods for delivering an immunotherapeutic agent” (NORTH CAROLINA STATE UNIVERSITY, priority 2016, dated 2021)
